From ChEMBL document CHEMBL4507268 (2021)

Experiments:
Details in all cases: Compound concentration 1000.0 nM
[1] = target: Wee1-like protein kinase 2 (Homo sapiens) (UniProt P0C1S8)
[2] = target: Cyclin-dependent kinase 8 (Homo sapiens) (UniProt P49336)
[3] = tested on: Tyrosine-protein kinase ABL1 (Homo sapiens), P00519 [H396P]
[4] = target: T1, Interleukin-1 receptor-associated kinase 4 (Homo sapiens) (UniProt Q9NWZ3)
T1 sequence (whole entry): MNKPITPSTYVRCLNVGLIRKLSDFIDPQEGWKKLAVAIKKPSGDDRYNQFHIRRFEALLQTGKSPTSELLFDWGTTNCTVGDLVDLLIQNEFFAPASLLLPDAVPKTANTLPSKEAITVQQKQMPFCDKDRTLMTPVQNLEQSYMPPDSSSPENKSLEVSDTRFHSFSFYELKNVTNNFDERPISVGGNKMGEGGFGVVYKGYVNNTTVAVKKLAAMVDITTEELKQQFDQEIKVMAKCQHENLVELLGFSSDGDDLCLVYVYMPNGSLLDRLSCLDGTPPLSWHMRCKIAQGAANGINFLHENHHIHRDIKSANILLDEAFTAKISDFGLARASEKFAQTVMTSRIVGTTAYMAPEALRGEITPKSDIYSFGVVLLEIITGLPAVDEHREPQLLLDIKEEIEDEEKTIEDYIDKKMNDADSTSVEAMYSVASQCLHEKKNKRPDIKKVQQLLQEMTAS

[5] = target: RAC-beta serine/threonine-protein kinase (Homo sapiens) (UniProt P31751)
[6] = target: Cytoplasmic tyrosine-protein kinase BMX (Homo sapiens) (UniProt P51813)
Sequence of Cytoplasmic tyrosine-protein kinase BMX (Homo sapiens) (P51813 whole entry): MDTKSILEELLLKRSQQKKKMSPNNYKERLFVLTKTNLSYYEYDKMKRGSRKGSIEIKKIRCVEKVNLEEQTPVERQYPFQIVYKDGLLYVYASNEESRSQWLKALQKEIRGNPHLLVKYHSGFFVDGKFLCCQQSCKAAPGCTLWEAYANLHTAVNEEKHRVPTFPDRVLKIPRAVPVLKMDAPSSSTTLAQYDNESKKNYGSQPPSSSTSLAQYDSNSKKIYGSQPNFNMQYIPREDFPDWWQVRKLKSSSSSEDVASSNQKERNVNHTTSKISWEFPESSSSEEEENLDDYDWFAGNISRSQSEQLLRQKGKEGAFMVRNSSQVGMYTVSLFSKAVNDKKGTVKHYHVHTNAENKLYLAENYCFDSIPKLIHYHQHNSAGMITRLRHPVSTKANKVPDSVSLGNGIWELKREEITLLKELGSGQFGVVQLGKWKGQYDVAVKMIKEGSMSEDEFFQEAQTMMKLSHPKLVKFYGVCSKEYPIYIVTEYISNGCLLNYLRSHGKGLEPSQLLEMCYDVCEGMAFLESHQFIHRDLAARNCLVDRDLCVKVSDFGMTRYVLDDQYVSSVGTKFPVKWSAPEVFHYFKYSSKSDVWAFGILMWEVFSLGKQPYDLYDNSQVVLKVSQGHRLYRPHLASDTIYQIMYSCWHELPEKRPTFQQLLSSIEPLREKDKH

[7] = tested on: Receptor-type tyrosine-protein kinase FLT3 (Homo sapiens), P36888 [UNDEFINED MUTATION]
[8] = target: Dual specificity protein kinase CLK1 (Homo sapiens) (UniProt P49759)
Sequence of Dual specificity protein kinase CLK1 (Homo sapiens) (P49759 whole entry, looked up): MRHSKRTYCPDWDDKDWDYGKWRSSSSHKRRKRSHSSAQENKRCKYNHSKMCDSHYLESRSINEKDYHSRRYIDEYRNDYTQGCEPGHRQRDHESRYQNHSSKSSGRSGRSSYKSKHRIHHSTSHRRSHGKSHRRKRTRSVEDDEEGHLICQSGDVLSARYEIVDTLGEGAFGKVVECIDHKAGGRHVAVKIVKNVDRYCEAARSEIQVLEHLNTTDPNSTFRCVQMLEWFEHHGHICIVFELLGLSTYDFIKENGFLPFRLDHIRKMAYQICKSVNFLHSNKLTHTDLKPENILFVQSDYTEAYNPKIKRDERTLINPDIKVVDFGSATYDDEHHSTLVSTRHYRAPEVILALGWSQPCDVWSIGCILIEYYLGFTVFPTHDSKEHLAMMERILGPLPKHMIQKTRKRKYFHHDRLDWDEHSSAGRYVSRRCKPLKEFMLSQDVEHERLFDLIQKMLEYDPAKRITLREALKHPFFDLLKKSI

[9] = target: Serine/threonine-protein kinase 33 (Homo sapiens) (UniProt Q9BYT3)
[10] = target: NT-3 growth factor receptor (Homo sapiens) (UniProt Q16288)
[11] = target: Vascular endothelial growth factor receptor 3 (Homo sapiens) (UniProt P35916)
Sequence of Vascular endothelial growth factor receptor 3 (Homo sapiens) (P35916 whole entry): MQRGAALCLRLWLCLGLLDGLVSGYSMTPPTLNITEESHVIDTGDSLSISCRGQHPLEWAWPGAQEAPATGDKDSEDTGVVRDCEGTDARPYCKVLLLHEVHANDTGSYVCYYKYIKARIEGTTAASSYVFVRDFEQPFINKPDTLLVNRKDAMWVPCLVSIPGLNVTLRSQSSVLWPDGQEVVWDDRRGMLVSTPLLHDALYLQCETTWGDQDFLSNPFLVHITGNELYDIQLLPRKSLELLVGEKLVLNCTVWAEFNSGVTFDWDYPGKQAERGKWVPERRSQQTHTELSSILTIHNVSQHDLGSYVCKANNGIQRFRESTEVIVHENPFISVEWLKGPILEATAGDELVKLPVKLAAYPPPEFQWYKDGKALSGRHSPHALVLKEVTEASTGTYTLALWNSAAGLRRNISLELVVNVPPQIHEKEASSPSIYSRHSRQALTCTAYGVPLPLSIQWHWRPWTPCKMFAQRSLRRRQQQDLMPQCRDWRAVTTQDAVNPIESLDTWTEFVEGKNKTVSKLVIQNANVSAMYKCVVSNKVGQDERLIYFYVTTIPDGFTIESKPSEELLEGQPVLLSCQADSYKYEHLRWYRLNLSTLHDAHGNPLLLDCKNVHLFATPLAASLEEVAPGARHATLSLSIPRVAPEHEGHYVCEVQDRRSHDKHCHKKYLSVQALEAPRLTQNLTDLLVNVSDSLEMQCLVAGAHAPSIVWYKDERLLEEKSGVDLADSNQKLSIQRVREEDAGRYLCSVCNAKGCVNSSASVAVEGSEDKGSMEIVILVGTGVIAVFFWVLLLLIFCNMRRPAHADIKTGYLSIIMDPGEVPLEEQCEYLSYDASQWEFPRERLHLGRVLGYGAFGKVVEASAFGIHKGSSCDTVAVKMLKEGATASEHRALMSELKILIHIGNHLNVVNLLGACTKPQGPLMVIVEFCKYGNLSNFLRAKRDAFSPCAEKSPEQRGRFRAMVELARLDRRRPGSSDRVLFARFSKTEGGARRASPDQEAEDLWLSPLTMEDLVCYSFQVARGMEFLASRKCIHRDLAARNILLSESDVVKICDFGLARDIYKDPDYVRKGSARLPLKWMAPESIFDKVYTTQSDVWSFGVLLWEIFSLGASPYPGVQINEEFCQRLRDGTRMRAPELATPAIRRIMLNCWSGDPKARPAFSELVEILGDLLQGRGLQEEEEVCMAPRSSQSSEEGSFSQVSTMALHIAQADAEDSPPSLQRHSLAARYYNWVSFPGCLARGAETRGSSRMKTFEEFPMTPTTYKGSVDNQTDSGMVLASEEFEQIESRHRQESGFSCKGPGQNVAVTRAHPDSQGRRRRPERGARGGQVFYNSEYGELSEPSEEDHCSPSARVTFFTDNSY

[12] = target: Serine/threonine-protein kinase WNK1 (Homo sapiens) (UniProt Q9H4A3)
[13] = target: Cyclin-dependent kinase 19 (Homo sapiens) (UniProt Q9BWU1)
Sequence of Cyclin-dependent kinase 19 (Homo sapiens) (Q9BWU1 whole entry): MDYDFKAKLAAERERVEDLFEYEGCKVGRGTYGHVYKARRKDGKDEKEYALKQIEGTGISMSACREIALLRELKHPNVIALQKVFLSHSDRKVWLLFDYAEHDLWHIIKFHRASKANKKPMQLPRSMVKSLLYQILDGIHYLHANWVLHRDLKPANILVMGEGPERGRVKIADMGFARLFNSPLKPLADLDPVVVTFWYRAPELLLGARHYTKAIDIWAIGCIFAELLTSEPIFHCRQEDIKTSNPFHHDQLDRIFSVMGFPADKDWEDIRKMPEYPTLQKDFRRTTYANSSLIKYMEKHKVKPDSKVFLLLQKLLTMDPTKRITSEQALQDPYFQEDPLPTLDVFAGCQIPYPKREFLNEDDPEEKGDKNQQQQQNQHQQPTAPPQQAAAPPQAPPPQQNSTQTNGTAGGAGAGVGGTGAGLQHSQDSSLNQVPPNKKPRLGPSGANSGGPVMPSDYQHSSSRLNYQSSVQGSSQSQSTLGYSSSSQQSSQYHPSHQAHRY

[14] = target: Serine/threonine-protein kinase 24 (Homo sapiens) (UniProt Q9Y6E0)
Sequence of Serine/threonine-protein kinase 24 (Homo sapiens) (Q9Y6E0 whole entry, looked up): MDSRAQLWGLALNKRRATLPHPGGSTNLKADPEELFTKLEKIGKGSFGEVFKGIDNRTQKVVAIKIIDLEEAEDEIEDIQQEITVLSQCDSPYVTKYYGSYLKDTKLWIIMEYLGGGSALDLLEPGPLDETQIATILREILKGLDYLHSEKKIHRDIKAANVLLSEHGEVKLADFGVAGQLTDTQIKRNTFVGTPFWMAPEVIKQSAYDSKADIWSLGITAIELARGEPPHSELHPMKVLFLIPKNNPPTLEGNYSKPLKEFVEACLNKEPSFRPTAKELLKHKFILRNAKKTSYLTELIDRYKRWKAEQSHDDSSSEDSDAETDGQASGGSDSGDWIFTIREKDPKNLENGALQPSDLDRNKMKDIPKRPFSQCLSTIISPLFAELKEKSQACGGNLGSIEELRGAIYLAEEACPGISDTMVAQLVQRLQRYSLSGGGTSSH

[15] = target: Serine/threonine-protein kinase pim-3 (Homo sapiens) (UniProt Q86V86)
[16] = target: Serine/threonine-protein kinase 25 (Homo sapiens) (UniProt O00506)
[17] = tested on: Tyrosine-protein kinase ABL1 (Homo sapiens), P00519 [M351T]
[18] = target: T2, Inhibitor of nuclear factor kappa-B kinase subunit alpha (Homo sapiens) (UniProt O15111)
T2 sequence (whole entry): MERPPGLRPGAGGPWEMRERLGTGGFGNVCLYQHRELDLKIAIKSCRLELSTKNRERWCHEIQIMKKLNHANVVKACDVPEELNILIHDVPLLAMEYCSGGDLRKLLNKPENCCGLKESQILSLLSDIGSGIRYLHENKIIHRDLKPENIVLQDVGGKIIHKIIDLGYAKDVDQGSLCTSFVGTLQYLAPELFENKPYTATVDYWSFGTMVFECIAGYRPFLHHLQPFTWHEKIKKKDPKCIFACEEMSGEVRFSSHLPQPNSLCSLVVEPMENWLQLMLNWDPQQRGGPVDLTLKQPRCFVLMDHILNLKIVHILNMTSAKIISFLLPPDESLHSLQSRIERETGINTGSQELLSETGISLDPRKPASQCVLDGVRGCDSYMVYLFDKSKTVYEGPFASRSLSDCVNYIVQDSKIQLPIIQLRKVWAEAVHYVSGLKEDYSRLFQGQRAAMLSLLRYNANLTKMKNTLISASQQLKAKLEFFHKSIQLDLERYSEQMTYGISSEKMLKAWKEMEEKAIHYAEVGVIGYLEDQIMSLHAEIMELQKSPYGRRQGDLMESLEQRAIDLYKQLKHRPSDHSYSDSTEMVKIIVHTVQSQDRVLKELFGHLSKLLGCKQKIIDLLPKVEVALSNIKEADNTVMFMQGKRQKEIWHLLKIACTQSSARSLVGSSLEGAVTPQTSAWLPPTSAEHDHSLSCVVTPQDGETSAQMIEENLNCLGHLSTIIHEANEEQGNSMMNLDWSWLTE

Measured: residual activity

Sequence of Wee1-like protein kinase 2 (Homo sapiens) (P0C1S8 whole entry, looked up): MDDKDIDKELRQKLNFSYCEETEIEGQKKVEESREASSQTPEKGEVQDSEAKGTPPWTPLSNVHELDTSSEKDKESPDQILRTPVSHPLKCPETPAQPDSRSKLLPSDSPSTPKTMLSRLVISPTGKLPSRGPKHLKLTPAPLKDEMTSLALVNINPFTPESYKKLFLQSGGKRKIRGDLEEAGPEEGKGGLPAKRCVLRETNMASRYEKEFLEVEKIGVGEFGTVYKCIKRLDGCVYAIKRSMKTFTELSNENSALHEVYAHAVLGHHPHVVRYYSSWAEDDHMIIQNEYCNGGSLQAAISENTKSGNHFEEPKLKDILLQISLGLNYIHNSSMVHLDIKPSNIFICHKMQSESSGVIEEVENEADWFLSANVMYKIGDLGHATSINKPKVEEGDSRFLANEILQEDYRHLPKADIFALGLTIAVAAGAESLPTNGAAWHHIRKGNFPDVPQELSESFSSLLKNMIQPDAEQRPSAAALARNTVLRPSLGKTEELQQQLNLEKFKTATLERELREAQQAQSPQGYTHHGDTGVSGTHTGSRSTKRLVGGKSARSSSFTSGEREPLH
Sequence of Cyclin-dependent kinase 8 (Homo sapiens) (P49336 whole entry): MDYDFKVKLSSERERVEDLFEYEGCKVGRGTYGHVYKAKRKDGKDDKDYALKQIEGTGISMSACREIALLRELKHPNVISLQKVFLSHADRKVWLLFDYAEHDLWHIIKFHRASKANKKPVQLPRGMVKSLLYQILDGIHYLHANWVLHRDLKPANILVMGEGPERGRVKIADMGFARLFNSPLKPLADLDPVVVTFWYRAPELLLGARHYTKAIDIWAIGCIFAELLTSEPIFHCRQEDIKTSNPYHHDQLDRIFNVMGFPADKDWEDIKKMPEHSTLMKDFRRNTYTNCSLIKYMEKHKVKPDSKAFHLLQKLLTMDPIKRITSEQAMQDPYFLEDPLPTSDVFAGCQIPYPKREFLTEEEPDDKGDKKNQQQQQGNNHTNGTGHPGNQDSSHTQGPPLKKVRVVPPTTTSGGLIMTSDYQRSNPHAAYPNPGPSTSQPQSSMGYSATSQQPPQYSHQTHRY

Cc1nc(C2CCN(C(=O)c3ccc(OC(F)(F)F)cc3N)CC2)c2ncc(N3CCN(C)CC3)cc2n1 [BAY-693]
inactive: [1] 100% | [2] 100% | [3] 78% | [4] 90% | [5] 100% | [6] 100% | [7] 86% | [8] 100% | [9] 100% | [10] 97% | [11] 75% | [12] 94% | [13] 86% | [14] 97% | [15] 100% | [16] 100% | [17] 100% | [18] 84%

CN1CCN(c2cnc3c(C4CCN(C(=O)c5ccc(OC(F)(F)F)cc5N)CC4)ncnc3c2)CC1 [BAY-885]
inactive: [1] 100% | [2] 100% | [3] 76% | [4] 90% | [5] 100% | [6] 100% | [7] 93% | [8] 100% | [9] 99% | [10] 100% | [11] 100% | [12] 100% | [13] 79% | [14] 100% | [15] 100% | [16] 92% | [17] 100% | [18] 100%
